Experimental data published in PMC9090415, “Discovery of small molecule inhibitors of Plasmodium falciparum apicoplast DNA polymerase” (Journal of Enzyme Inhibition and Medicinal Chemistry, 2022).

Target: P. falciparum apicoplast DNA polymerase (Pf-apPOL) (Plasmodium falciparum, UniProt Q8ILY1)
Test: Fluorescence-based high-throughput DNA polymerase assay (molecular beacon), primary screen and dose-response
Assay type: biochemical
Summary of the method: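 Single-point screening used 10 µM compound with 20 nM polymerase, 20 nM hairpin substrate and 6 µM dNTPs for 90 min at 25 °C. Confirmatory titrations (2.5–80 µM) followed fluorescence at three times, and IC50 was derived from a fit including a cooperativity term n.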

Chain of P. falciparum apicoplast DNA polymerase (Pf-apPOL) (Q8ILY1 entry or part of it): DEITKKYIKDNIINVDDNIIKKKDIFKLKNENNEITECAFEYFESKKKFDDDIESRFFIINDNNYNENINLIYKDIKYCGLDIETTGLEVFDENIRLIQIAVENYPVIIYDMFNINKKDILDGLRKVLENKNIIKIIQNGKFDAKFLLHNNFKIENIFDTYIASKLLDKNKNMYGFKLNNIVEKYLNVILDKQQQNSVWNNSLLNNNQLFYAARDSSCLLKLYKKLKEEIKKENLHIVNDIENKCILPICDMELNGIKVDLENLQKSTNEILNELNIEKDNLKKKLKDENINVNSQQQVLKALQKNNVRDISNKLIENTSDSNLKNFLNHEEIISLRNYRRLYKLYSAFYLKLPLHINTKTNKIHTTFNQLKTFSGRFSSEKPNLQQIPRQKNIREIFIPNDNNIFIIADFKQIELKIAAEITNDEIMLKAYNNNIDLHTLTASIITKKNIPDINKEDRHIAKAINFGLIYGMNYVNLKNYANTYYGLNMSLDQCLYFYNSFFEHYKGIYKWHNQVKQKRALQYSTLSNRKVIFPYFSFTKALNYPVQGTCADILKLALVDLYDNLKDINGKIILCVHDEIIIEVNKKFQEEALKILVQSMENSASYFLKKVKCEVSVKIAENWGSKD

## Cc1cc(C)nc(Nc2nc(CC(=O)Nc3nc(-c4ccco4)cs3)cs2)n1 [Molecule 92, O=C(Nc1scc(n1)c1ccco1)Cc1csc(n1)Nc1nc(C)cc(n1)C]
DRC-1; concentration 2.5; 10'
  % inhibition Apo pol 10': -6.381%
DRC-1; concentration 2.5; 90'
  % inhibition Apol 90': -8.504%
DRC-1; concentration 2.5; 180'
  % inhibition apPOL 180': -14.5806%
DRC-1; concentration 5; 10'
  % inhibition Apo pol 10': 13.7887%
DRC-1; concentration 5; 90'
  % inhibition Apol 90': 3.55%
DRC-1; concentration 5; 180'
  % inhibition apPOL 180': -5.24%
DRC-1; concentration 10; 10'
  % inhibition Apo pol 10': 59.5511%
DRC-1; concentration 10; 90'
  % inhibition Apol 90': 43.4607%
DRC-1; concentration 10; 180'
  % inhibition apPOL 180': 29.1586%
DRC-1; concentration 20; 10'
  % inhibition Apo pol 10': 80.2022%
DRC-1; concentration 20; 90'
  % inhibition Apol 90': 69.8736%
DRC-1; concentration 20; 180'
  % inhibition apPOL 180': 60.6937%
DRC-1; concentration 40; 10'
  % inhibition Apo pol 10': 86.2847%
DRC-1; concentration 40; 90'
  % inhibition Apol 90': 85.2413%
DRC-1; concentration 40; 180'
  % inhibition apPOL 180': 83.5937%
DRC-1; concentration 80 (unit not given); 10'
  % inhibition Apo pol 10': 83.354%
DRC-1; concentration 80; 90'
  % inhibition Apol 90': 86.9682%
DRC-1; concentration 80; 180'
  % inhibition apPOL 180': 88.1815%
DRC-2; 5'; concentration 5
  % inhibition Apo pol 5': 6%
DRC-2; 5'; concentration 40
  % inhibition Apo pol 5': 41%
DRC-2; 40'; concentration 10
  % inhibition Apol 40': 41%
DRC-2; 40'; concentration 20
  % inhibition Apol 40': 59%
DRC-2; 40'; concentration 80
  % inhibition Apol 40': 59%
DRC-2; 90'; concentration 5
  % inhibition ApPOL 90': 6%
DRC-2; concentration 2.5; 5'
  % inhibition Apo pol 5': 7%
DRC-2; concentration 2.5; 40'
  % inhibition Apol 40': 9%
DRC-2; concentration 2.5; 90'
  % inhibition ApPOL 90': 7.61%
DRC-2; concentration 2.5; 180'
  % inhibition apPOL 180': 3.63%
DRC-2; concentration 5; 5'
  % inhibition Apo pol 5': 6%
DRC-2; concentration 5; 40'
  % inhibition Apol 40': 5.45%
DRC-2; concentration 5; 90'
  % inhibition ApPOL 90': 6%
DRC-2; concentration 5; 180'
  % inhibition apPOL 180': 0.203%
DRC-2; concentration 10; 5'
  % inhibition Apo pol 5': 37%
DRC-2; concentration 10; 40'
  % inhibition Apol 40': 41%
DRC-2; concentration 10; 90'
  % inhibition ApPOL 90': 39%
DRC-2; concentration 10; 180'
  % inhibition apPOL 180': 30%
DRC-2; concentration 20; 5'
  % inhibition Apo pol 5': 43%
DRC-2; concentration 20; 40'
  % inhibition Apol 40': 59%
DRC-2; concentration 20; 90'
  % inhibition ApPOL 90': 60%
DRC-2; concentration 20; 180'
  % inhibition apPOL 180': 57%
DRC-2; concentration 40; 5'
  % inhibition Apo pol 5': 41%
DRC-2; concentration 40; 40'
  % inhibition Apol 40': 65%
DRC-2; concentration 40; 90'
  % inhibition ApPOL 90': 70%
DRC-2; concentration 40; 180'
  % inhibition apPOL 180': 74%
DRC-2; concentration 80; 5'
  % inhibition Apo pol 5': 29%
DRC-2; concentration 80; 40'
  % inhibition Apol 40': 59%
DRC-2; concentration 80; 90'
  % inhibition ApPOL 90': 66%
DRC-2; concentration 80; 180'
  % inhibition apPOL 180': 73%
Primary screen value of the 186 hits; unit not given; 90 min, 10 µM
  DNA Pol: 70
Primary screen value; head prints only 'DNA Pol'; 90 min, 10 µM
  DNA Pol: 70
